Data from patent US20050019746A1, “Apoptosis-related kinase/GPCRs” (EiRx Therapeutics Limited, priority 2003, published 2005).

Columns and labels:
[1] = test system: human primary neutrophils; assay: Neutrophil apoptosis by sub G1 analysis (DNA fragmentation); type: cell-based; settings: inhibitor 20 μM with GM-CSF 50 units/ml, 18 h, relative to GM-CSF alone
Description: Neutrophils are isolated from the blood as described in WO 02/04657 and resuspended at a concentration of 2×10^6/ml. Five hundred microlitres are pipetted into wells of a 24 well plate and incubated in the presence or absence of survival factors.
After this incubation, the neutrophils are carefully resuspended by gentle agitation and the total contents of the well are placed into an eppendorf and centrifuged@2800 rpm for 2 min@RT in a minifuge. The cell pellet is carefully resuspended in 300 μl of ice cold hypotonic fluorochrome solution (50 μg/ml Propidium Iodide, 0.1% Sodium Citrate and 0.1% Triton X-100) and placed in a fridge for 24 h@4° C.
Prepared samples are analysed with a FacsCalibre flow cytometer (Becton Dickinson) using double discrimination to ensure single cell suspension with Log Forward and Side Scatter Parameter acquisition.
(§1) Neutrophils are seeded at 2×10^6/ml in a 24 well plate in full culture medium (1 ml/well). A PI3K inhibitor (Ly294002) is added to the neutrophils to a final concentration of 20 μM prior to the addition of GM-CSF (50 units/ml). Control wells received either no GM-CSF or F GM-CSF (50 units/ml) in the absence of inhibitor. Neutrophils are cultured for 18 h at 37° C. prior to harvest and prepared for sub G1 analysis, as previously described.
as §1, with “An AKT” for “A PI3K”, “([1L-6-Hydroxymethyl-chiro-inositol 2-O-methyl-3-O-octadecylcarbonate] (Calbiochem))” for “(Ly294002)”, “μM and incubated for 2 h” for “μM”, “receive” for “received”, “or” for “or F”

[2] = test system: PDK1 regulatory sites in S6K1 and Akt; settings: Ballif et al; cited from earlier work
[3] = test system: JAK3-positive leukemia cell lines DAUDI, RAMOS, LC1;19, NALM-6, MOLT-3, HL-60; settings: concentration-dependent, not JAK3-negative lines (Sudbeck et al); cited from earlier work
glioblastoma cell = settings: Narla et al; cited from earlier work
HCT15 cells [4] = assay: 10-14 day Clonagenicity Assay (MTT), HCT15; type: cell-based, human; settings: independent experiment n = 1, dilution point of maximum toxicity
Description: (§2) The Clonagenicity Assay represents a Cell Viability Screen that allows assessment of a cytotoxic insult at a variety of seed densities of cancer cell lines over an extended period of logarithmic growth, such that the definitive effect of the test substance can be accurately quantified. In this instance, the ‘cytotoxic insult’ to be tested involves the transfection of siRNA Oligomers to knockdown the expression of novel target Kinases and GPCRs as outlined previously. Cell number is quantified 10-14 days post siRNA transfection by MTT conversion as described in detail in Example 6.
(§3) The Clonagenicity Assay is optimised for each cell line examined with respect to seed number. The seed number varies for each cell line and accounts for the differences in cell size, growth rate and sensitivity to transfection-induced toxicity for each cell line pursued. Cells lines given as models for this example include HCT15, MCF7, A549, SKOV3, DU145, U251, PC3, A498 and HeLa. The siRNA oligo to Survivin serves as a positive control for toxicity in this assay and the missense control oligomer acts as a negative control as described in detail in Examples 5 and 6. The c-Raf, BCL2 and PI3K siRNA oligomers serve as additional controls as previously mentioned. The Clonagenicity assay is performed as outlined below.
(§4) Cells are seeded into a 96-well plate as described below and allowed to adhere overnight at 37° C. in a humidified atmosphere containing 5% CO2 in air. Wells are seeded with an appropriate cell number (cell line dependent) in Column 1 of the 96 well plates and this cell suspension is diluted 1 in 2 across the 96 well plates from Column 1 through to 6 (represented on the x-axis in results). Cells are next transfected with siRNA Oligomers, at a concentration of 2 μg/ml, against the genes of interest. Transfections continue for 4 hrs after which the transfection solution is removed and cells are refed with fresh medium and allow to incubate overnight. An additional media change@24 hrs post transfection is made to minimise toxicity of the transfection reagent. Cells are subsequently incubated for a 10-14 Day period post transfection at a 37° C. incubation as described above. Medium is renewed weekly following which MTT quantification is performed as described in Example 5.
(§5) To be considered cytotoxic, the siRNA Oligo against the gene target must induce a decreased viability in a cell line across at least 2 seed densities in the clonagenicity assay, such that a significant difference between the target gene and MS is observed i.e. no crossing of the Standard Error bars is detected. The average percentage viability, relative to missense, is recorded for the dilution point at which Maximum Toxicity is induced is recorded in Table 13.
(§6) Table 13 Clonagenicity Assay—This table gives the average percentage survival of the indicated cell lines relative to the missense in a clonagenicity assay, over 3 independent experiments. As an internal reference, the known survival gene ‘Survivin’, BCL2, c-Raf and PI3KR1 was also targeted by siRNA. When no Cytotoxic response is detected ‘-’ is recorded.

A549 cells [5] = assay: 10-14 day Clonagenicity Assay (MTT), A549; type: cell-based, human; settings: independent experiment n = 3, dilution point of maximum toxicity
Description: as §2, §3, §4, §5, §6

SKOV3 cells = assay: 10-14 day Clonagenicity Assay (MTT), SKOV3; type: cell-based, human; settings: independent experiment n = 1, dilution point of maximum toxicity
Description: as §2, §3, §4, §5, §6

DU145 cells = assay: 10-14 day Clonagenicity Assay (MTT), DU145; type: cell-based, human; settings: independent experiment n = 2, dilution point of maximum toxicity
Description: as §2, §3, §4, §5, §6

A498 cells = assay: 10-14 day Clonagenicity Assay (MTT), A498; type: cell-based, human; settings: independent experiment n = 3, dilution point of maximum toxicity
Description: as §2, §3, §4, §5, §6

A549 cells [6] = assay: Anchorage Independence/Soft Agar Assay, A549; type: cell-based, human; set-up: PERCENTAGE SURVIVAL RELATIVE TO MS, A549, n = 2: tested at 2 µg; settings: soft agar
Description: (§7) The Anchorage Independence/Soft Agar Assay allows assessment of the influence of modulation of gene expression on clonal tumouroid formation by observing and quantifying tumouroid morphology and colony number over an extended period of logarithmic growth thereby ascertaining any cell death is induced.
(§8) Cells are seeded into a 6-well plate and allowed to adhere overnight at 37° C. in a humidified atmosphere containing 5% CO2 in air. Cells are next transfected with siRNA Oligomers, at a concentration of 2 μg, against the genes of interest. Transfections continued for 4 hrs after which the transfection solution is removed and cells are refed with fresh medium and allowed incubate overnight. Transfected cells are next harvested for seeding into soft agar assay as described below. Cells are seeded at 5×10^4 cells per well of a 6 well plate and incubated over a 12/14-Day period whilst proliferating in a 0.05% Agar/Medium cell suspension at 37° C. in a humidified atmosphere containing 5% CO2 in air. Colonies formed are subsequently stained with Crystal Violet, their morphology is assessed and colonies formed are enumerated at a 4× magnification.
(§9) The cytotoxic effect of each gene is determined by a reduction in colony number compared to our MS control, but any influence on the morphology of the colony is also noted.
(§10) Examples of genes with a cytotoxic effect on knockdown as detected by the soft agar assay are outlined in Table 14. Table 14 gives the percentage survival of the indicated cell lines post transfection with siRNA oligomers to target genes relative to that of the missense in an anchorage independent assay. As an internal reference, the known survival gene Survivin was also targeted by siRNA. This table illustrates the magnitude of cytotoxicity induced by the knockdown of each target gene compared to the MS control i.e. the number of colonies formed are stained with Crystal violet and enumerated visually as discussed.

HCT15 cells [7] = assay: Anchorage Independence/Soft Agar Assay, HCT15; type: cell-based, human; set-up: PERCENTAGE SURVIVAL RELATIVE TO MS, HCT15, n = 2: tested at 2 µg; PERCENTAGE SURVIVAL RELATIVE TO MS, HCT15, n = 1: tested at 2 µg siRNA; settings: soft agar
Description: as §7, §8, §9, §10

MCF7 cells = assay: Anchorage Independence/Soft Agar Assay, MCF7; type: cell-based, human; set-up: PERCENTAGE SURVIVAL RELATIVE TO MS, MCF7, n = 2: tested at 2 µg; settings: soft agar
Description: as §7, §8, §9, §10

cancer cell lines = assay: Anchorage Independence/Soft Agar Assay, summary over the cell lines; type: cell-based, human; settings: 14-day anchorage independent assay, over the cell lines examined
Description: as §7, §8, §9
As an internal reference, the known survival gene ‘Survivin’ was also targeted by siRNA.

CCCCCCCCCCCCCCCCCCOC(=O)OC1C(O)C(O)C(CO)C(O)C1OC (centres unmarked) [1L-6-Hydroxymethyl-chiro-inositol 2-O-methyl-3-O-octadecylcarbonate]
apoptosis / GM-CSF mediated survival by sub G1 analysis [1]: survival is abrogated | apoptosis / GM-CSF mediated survival by sub G1 analysis ([1]; listed as IL-6-Hydroxymethyl-chiro-inositol 2-(R)-2-O-methyl-3-O-octadecylcarbonate): increases the amount of apoptosis

Cc1ccc(S(=O)(=O)N[C@@H](Cc2ccccc2)C(=O)CCl)cc1 [TPCK, n-alpha-tosyl-1-phenylalanyl chloromethyl ketone]
phosphorylation of PDK1 regulatory sites [2]: prevented phosphorylation of the PDK1 regulatory sites in S6K1 and Akt

COc1cc2ncnc(Nc3ccc(O)cc3)c2cc1OC [WHI-P131]
clonogenic growth [3]: inhibited the clonogenic growth | glioblastoma cell adhesion and migration (glioblastoma cell): potent inhibitors of glioblastoma cell adhesion and migration

siRNA c-Raf: control siRNA, sense UAGUUCAGCAGUUUGGCUAtt, antisense UAGCCAAACUGCUGAACUAtt (sense UAGUUCAGCAGUUUGGCUATT; antisense UAGCCAAACUGCUGAACUATT; chemistry not given here) [reference compound]
percentage survival relative to the missense, n = 1 (HCT15 cells [4]): 83.5% | percentage survival relative to the missense, n = 3 (A549 cells [5]): 59.1% | percentage survival relative to the missense, n = 1 (SKOV3 cells): 42.5% | percentage survival relative to the missense, n = 2 (DU145 cells): 54.9% | percentage survival relative to the missense, n = 3 (A498 cells): 14.8% | PERCENTAGE SURVIVAL RELATIVE TO MS, A549, n = 1 (A549 cells [6]; experiment n = 1): 57% | PERCENTAGE SURVIVAL RELATIVE TO MS, A549, n = 2 (A549 cells [6]; experiment n = 2): 24.2% | PERCENTAGE SURVIVAL RELATIVE TO MS, HCT15, n = 1 (HCT15 cells [7]; experiment n = 1): 70% | PERCENTAGE SURVIVAL RELATIVE TO MS, HCT15, n = 2 (HCT15 cells [7]; experiment n = 2): 65.1% | PERCENTAGE SURVIVAL RELATIVE TO MS, MCF7, n = 1 (MCF7 cells; experiment n = 1): 89.7% | PERCENTAGE SURVIVAL RELATIVE TO MS, MCF7, n = 2 (MCF7 cells; experiment n = 2): 98.2% | cell death / apoptosis in the soft agar assay (cancer cell lines): only induced cell death in the A549 and HCT15 cell lines
